Laboratory results taken from US20240018122A1, “PYRIDAZINYL AMINO DERIVATIVES AS ALK5 INHIBITORS” (CHIESI FARMACEUTICI S.P.A., priority 2020, published 2024).

What follows are molecules tested against human ALK5 (Homo sapiens (Human), UniProt P36897) (assay: ADP-GLO Kinases assay, inhibitory activity on ALK5). Details: not given.
Assay type: biochemical

human ALK5, sequence (P36897 80-503 limits assumed): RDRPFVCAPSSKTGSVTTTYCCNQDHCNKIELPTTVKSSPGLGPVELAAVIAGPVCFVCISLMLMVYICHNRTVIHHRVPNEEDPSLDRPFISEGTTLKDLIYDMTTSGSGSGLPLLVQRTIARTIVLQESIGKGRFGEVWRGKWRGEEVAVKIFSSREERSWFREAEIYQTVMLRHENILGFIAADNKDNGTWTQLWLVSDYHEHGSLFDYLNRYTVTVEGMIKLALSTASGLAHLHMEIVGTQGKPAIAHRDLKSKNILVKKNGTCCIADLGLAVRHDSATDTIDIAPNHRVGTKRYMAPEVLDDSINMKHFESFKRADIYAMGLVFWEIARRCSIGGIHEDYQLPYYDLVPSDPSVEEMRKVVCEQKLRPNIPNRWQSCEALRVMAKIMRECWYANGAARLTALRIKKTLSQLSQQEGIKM

| Molecule | IC50 [nM] |
| --- | --- |
| O=C(Oc1ccc2c(Nc3cnnc(-c4cc(Cl)ccc4F)c3)ccnc2c1)N1CCN(CCO)CC1 [Example 57, 4-{[6-(5-Chloro-2-Fluorophenyl)Pyridazin-4-Yl]Amino}Quinolin-7-Yl 4-(2-Hydroxyethyl)Piperazine-1-Carboxylate] | 1 to 5 |
| CN1CCC(CN2CCN(C(=O)Oc3ccc4c(Nc5cnnc(-c6cc(Cl)ccc6F)c5)ccnc4c3)CC2)CC1 [Example 100, 4-{[6-(5-Chloro-2-Fluorophenyl)Pyridazin-4-Yl]Amino}Quinolin-7-Yl 4-[(1-Methylpiperidin-4-Yl)Methyl]Piperazine-1-Carboxylatate] | 1 to 5 |
| CS(=O)(=O)CCN1CCN(C(=O)Oc2ccc3c(Nc4cnnc(-c5cc(Cl)ccc5F)c4)ccnc3c2)CC1 [Example 53, 4-{[6-(5-Chloro-2-Fluorophenyl)Pyridazin-4-Yl]Amino}Quinolin-7-Yl 4-(2-Methanesulfonylethyl)Piperazine-1-Carboxylate] | 1 to 5 |
| Cc1nnc(-c2cc(Cl)ccc2F)cc1Nc1ccnc2cc(OC(=O)N3CC4CC3CN4C)ccc12 (stereo not drawn) [Example 128, 4-{[6-(5-Chloro-2-Fluorophenyl)-3-Methylpyridazin-4-Yl]Amino}Quinolin-7-Yl 5-Methyl-2,5-Diazabicyclo[2.2.1]Heptane-2-Carboxylate] | < 1 |
| CN1CCC(CCN(C)C(=O)Oc2ccc3c(Nc4cnnc(-c5cc(Cl)ccc5F)c4)ccnc3c2)CC1 [Example 51, 4-{[6-(5-Chloro-2-Fluorophenyl)Pyridazin-4-Yl]Amino}Quinolin-7-Yl N-Methyl-N-[2-(1-Methylpiperidin-4-Yl)Ethyl]Carbamate] | 1 to 5 |

Same assay, conditions: purified recombinant human ALK5 2.6 nM, TGFβ1 peptide substrate, 25° C, 150 min incubation, ADP-Glo detection; read-out: ALK5 IC50

| IC50 [nM] | Molecule |
| --- | --- |
| < 1 | Cc1nnc(-c2cc(Cl)ccc2F)cc1Nc1ccnc(NC(=O)CCN2CCN(C)C(C(=O)OC3CC3)C2)c1 (stereo not drawn) [Example 127, Cyclopropyl 4-{2-[(4-{[6-(5-Chloro-2-Fluorophenyl)-3-Methylpyridazin-4-Yl]Amino}Pyridin-2-Yl)Carbamoyl]Ethyl}-1-Methylpiperazine-2-Carboxylate] |
| < 1 | CN(CCC(=O)Nc1cc(Nc2cnnc(-c3cc(Cl)ccc3F)c2)ccn1)C1COC1 [Example 18, N-(4-{[6-(5-Chloro-2-Fluorophenyl)Pyridazin-4-Yl]Amino}Pyridin-2-Yl)-3-[Methyl(Oxetan-3-Yl)Amino]Propanamide] |
| < 1 | CN1CCN(CCOc2cc3nccc(Nc4cnnc(-c5cc(Cl)ccc5F)c4)c3cc2O)CC1 [Example 148, 4-{[6-(5-Chloro-2-Fluorophenyl)Pyridazin-4-Yl]Amino}-7-[2-(4-Methylpiperazin-1-Yl)Ethoxy]Quinolin-6-Ol] |
| < 1 | CNCCN1CCN(CC(=O)Nc2cc(Nc3cc(-c4cc(Cl)ccc4F)nnc3C)ccn2)CC1 [Example 106, N-(4-{[6-(5-Chloro-2-Fluorophenyl)-3-Methylpyridazin-4-Yl]Amino}Pyridin-2-Yl)-2-{4-[2-(Methylamino)Ethyl]Piperazin-1-Yl}Acetamide] |
| < 1 | Cc1nnc(-c2cc(Cl)ccc2F)cc1Nc1ccnc(NC(=O)CCN2CCN(CC(F)(F)F)CC2)c1 [Example 124, N-(4-{[6-(5-Chloro-2-Fluorophenyl)-3-Methylpyridazin-4-Yl]Amino}Pyridin-2-Yl)-3-[4-(2,2,2-Trifluoroethyl)Piperazin-1-Yl]Propanamide] |
| 1 to 5 | CN1CCN(CCNC(=O)c2c[nH]c3nccc(Nc4cnnc(-c5cc(Cl)ccc5F)c4)c23)CC1 [Example 21, 4-{[6-(5-Chloro-2-Fluorophenyl)Pyridazin-4-Yl]Amino}-N-[2-(4-Methylpiperazin-1-Yl)Ethyl]-1H-Pyrrolo[2,3-13]Pyridine-3-Carboxamide] |
| 1 to 5 | CN1CCN(CCC(=O)Nc2cc(Nc3cnnc(-c4cc(Cl)ccc4F)c3)ccn2)CC1=O [Example 24, N-(4-{[6-(5-Chloro-2-Fluorophenyl)Pyridazin-4-Yl]Amino}Pyridin-2-Yl)-3-(4-Methyl-3-Oxopiperazin-1-Yl)Propanamide] |
| < 1 | Cc1nnc(-c2cc(Cl)ccc2F)cc1Nc1ccnc(NC(=O)CC2CCN(C)CC2)c1 [Example 157, N-(4-{[6-(5-Chloro-2-Fluorophenyl)-3-Methylpyridazin-4-Yl]Amino}Pyridin-2-Yl)-2-(1-Methylpiperidin-4-Yl)Acetamide] |
| < 1 | Cc1nnc(-c2cc(Cl)ccc2F)cc1Nc1ccnc(NC(=O)CCN2CCNCC2)c1 [Example 74, N-(4-{[6-(5-chloro-2-fluorophenyl)-3-methylpyridazin-4-yl]amino}pyridin-2-yl)-3-(piperazin-1-yl)propanamide] |
| < 1 | 1-(4-{[6-(2-Chloro-5-Fluorophenyl)-3-Methylpyridazin-4-Yl]Amino}Pyridin-2-Yl)-3-[(1-Methylpiperidin-4-Yl)Methyl]Urea [Example 142] |
| < 1 | Cc1nnc(-c2cc(C(F)F)ccc2F)cc1Nc1ccnc(NC(=O)CCN2CCN(C)CC2)c1 [Example 190, N-[4-({6-[5-(Difluoromethyl)-2-Fluorophenyl]-3-Methylpyridazin-4-Yl}Amino)Pyridin-2-Yl]-3-(4-Methylpiperazin-1-Yl)Propenamide] |
| < 1 | Cc1nnc(-c2cc(Cl)ccc2F)cc1Nc1ccnc(NC(=O)N2CCN(C)CC2)c1 [Example 85, N-(4-{[6-(5-Chloro-2-Fluorophenyl)-3-Methylpyridazin-4-Yl]Amino}Pyridin-2-Yl)-4-Methylpiperazine-1-Carboxamide] |
| < 1 | CNC(=O)CCN1CCN(CCOc2ccc3c(Nc4cnnc(-c5cc(Cl)ccc5F)c4)ccnc3c2)CC1 [Example 63, 3-(4-{2-[(4-{[6-(5-Chloro-2-Fluorophenyl)Pyridazin-4-Yl]Amino}Quinolin-7-Yl)Oxy]Ethyl}Piperazin-1-Yl)-N-Methylpropanamide] |
| < 1 | Cc1nnc(-c2cc(Cl)ccc2F)cc1Nc1ccnc(NC(=O)CCN2CCN(CCNS(C)(=O)=O)CC2)c1 [Example 136, N-(4-{[6-(5-Chloro-2-Fluorophenyl)-3-Methylpyridazin-4-Yl]Amino}Pyridin-2-Yl)-3-[4-(2-Methanesulfonamidoethyl)Piperazin-1-Yl]Propanamide] |
| 1 to 5 | Cc1nnc(-c2cc(Cl)ccc2F)cc1Nc1ccnc(NC(=O)C2CCN(C)CC2)c1 [Example 88, N-(4-{[6-(5-Chloro-2-Fluorophenyl)-3-Methylpyridazin-4-Yl]Amino}Pyridin-2-Yl)-1-Methylpiperidine-4-Carboxamide] |
| < 1 | COC(=O)C1CN(CCC(=O)Nc2cc(Nc3cc(-c4cc(Cl)ccc4F)nnc3C)ccn2)CCN1C (stereo not drawn) [Example 94, Methyl 4-{2-[(4-{[6-(5-Chloro-2-Fluorophenyl)-3-Methylpyridazin-4-Yl]Amino}Pyridin-2-Yl)Carbamoyl]Ethyl}-1-Methylpiperazine-2-Carboxylate] |
| < 1 | CN1CCCN(CCCOc2ccc3c(Nc4cnnc(-c5cc(Cl)ccc5F)c4)ccnc3c2)C1 [Example 52, N-[6-(5-Chloro-2-Fluorophenyl)Pyridazin-4-Yl]-7-[3-(3-Methyl-1,3-Diazinan-1-Yl)Propoxy]Quinolin-4-Amine] |
| < 1 | Cc1nnc(-c2cc(Cl)ccc2F)cc1Nc1ccnc(NC(=O)CCN2CCN(C)C(C)C2)c1 (stereo not drawn) [Example 145, N-(4-{[6-(5-Chloro-2-Fluorophenyl)-3-Methylpyridazin-4-Yl]Amino}Pyridin-2-Yl)-3-(3,4-Dimethylpiperazin-1-Yl)Propanamide] |
| < 1 | O=C(NCCN1CCNCC1)c1ccc2c(Nc3cnnc(-c4cc(Cl)ccc4F)c3)ccnc2c1 [Example 10, 4-{[6-(5-Chloro-2-Fluorophenyl)Pyridazin-4-Yl]Amino}-N-[2-(Piperazin-1-Yl)Ethyl]Quinoline-7-Carboxamide] |
| < 1 | COC(=O)CCc1nnc(-c2cc(Cl)ccc2F)cc1Nc1ccnc(NC(=O)CCN2CCN(C)CC2)c1 [Example 187, Methyl 3-[6-(5-Chloro-2-Fluorophenyl)-4-({2-[3-(4-Methylpiperazin-1-Yl)Propanamido]Pyridin-4-Yl}Amino)Pyridazin-3-Yl]Propanoate] |
| < 1 | CCN1CCN(CCOc2ccc3c(Nc4cnnc(-c5cc(Cl)ccc5F)c4)ccnc3c2)CC1 [Example 30, N-[6-(5-Chloro-2-Fluorophenyl)Pyridazin-4-Yl]-7-[2-(4-Ethylpiperazin-1-Yl)Ethoxy]Quinolin-4-Amine] |
| < 1 | Cc1nnc(-c2cc(Cl)ccc2F)cc1Nc1ccnc(NC(=O)CCN2CCN(CCO)CC2)c1 [Example 80, N-(4-{[6-(5-Chloro-2-Fluorophenyl)-3-Methylpyridazin-4-Yl]Amino}Pyridin-2-Yl)-3-[4-(2-Hydroxyethyl)Piperazin-1-Yl]Propanamide] |
| < 1 | Cc1nnc(-c2cc(Cl)ccc2F)cc1Nc1ccnc(Nc2ccn(CCN3CCN(C)CC3)n2)c1 [Example 167, N-4-[6-(5-Chloro-2-Fluorophenyl)-3-Methylpyridazin-4-Yl]-N-2-{1-[2-(4-Methylpiperazin-1-Yl)Ethyl]-1H-Pyrazol-3-Yl}Pyridine-2,4-Diamine] |

| Molecule | IC50 [nM] |
| --- | --- |
| CN1CC2(CCN(C(=O)Oc3ccc4c(Nc5cnnc(-c6cc(Cl)ccc6F)c5)ccnc4c3)CC2)C1 [Example 114, 4-{[6-(5-Chloro-2-Fluorophenyl)Pyridazin-4-Yl]Amino}Quinolin-7-Yl 2-Methyl-2,7-Diazaspiro[3.5]Nonane-7-Carboxylate] | < 1 |
| O=C(Oc1ccc2c(Nc3cnnc(-c4cc(Cl)ccc4F)c3)ccnc2c1)N1CC(N2CCCC2)C1 [Example 133, 4-{[6-(5-Chloro-2-Fluorophenyl)Pyridazin-4-Yl]Amino}Quinolin-7-Yl 3-(Pyrrolidin-1-Yl)Azetidine-1-Carboxylate] | < 1 |
| Cc1nnc(-c2cc(Cl)ccc2F)cc1Nc1ccnc2cc(OC(=O)N3CCN(CCC4CCN(C)CC4)CC3)ccc12 [Example 81, 4-{[6-(5-Chloro-2-Fluorophenyl)-3-Methylpyridazin-4-Yl]Amino}Quinolin-7-Yl 4-[2-(1-Methylpiperidin-4-Yl)Ethyl]Piperazine-1-Carboxylate] | < 1 |
| CN1CCC2(CC1)CN(C(=O)Oc1ccc3c(Nc4cnnc(-c5cc(Cl)ccc5F)c4)ccnc3c1)C2 [Example 115, 4-{[6-(5-Chloro-2-Fluorophenyl)Pyridazin-4-Yl]Amino}Quinolin-7-Yl 7-Methyl-2,7-Diazaspiro[3.5]Nonane-2-Carboxylate] | < 1 |
| COC(=O)c1cccc(-c2cc(Nc3ccnc(N)c3)cnn2)c1F [Example C3, reference compound] | 10000 |
